Test results reported in US9765115B2, “Inhibitors of metastasis, methods of generating such inhibitors and their therapeutic applications” (Board of Supervisors of Louisiana State University acting …, priority 2011, dated 2017).
“Also recorded” adds a separate entry of the source.

What was measured:
Assay type in all cases: cell-based
[1] = test system: TCF/LEF promoter activity in PC-3 cells; assay: TCF/LEF luciferase reporter assay (pGL3-OT/pGL3-OF); details: 50 nM CT
Procedure: FIG. 28 depicts effect of CT on TCF/LEF promoter activity in PC-3 cells with various compounds added with CT. Cells were seeded into 6-well plates and transfected with the pGL3-OT luciferase/pRL-tK plasmids or pGL3-OF-luciferase/pRL-TK plasmids. The cells were then incubated in complete medium for 48 h, after which they were serum-starved for 16 h. The cells were then treated with CT and/or PMH compounds, and the cell lysates analyzed for luciferase activity. The results are expressed as relative light units (RLU) after normalization with Renilla luciferase activity. The experiment was repeated three separate times, and results expressed as means±S.E.M.
Certain hydantoin-like molecules isolated from sea sponge have been identified that could inhibit prostate cell metastasis (Shah et al., 2009; Mudit et al., 2011). Disruption of junctional complex stabilizes intracellular β-catenin, leading to its translocation in the nucleus, where it can bind to its partner LEF-1 (lymphocyte enhancer binding factor-1) to transactivate target genes. The transcription of TCF/LEF genes can be quantitated by using luciferase-based reporter plasmids, pGL3-OT and pGL3-OF, the improved version of the Topflash and Fopflash vectors (Shah et al., 2009). This assay can be used to comparatively evaluate junction disrupting activity of multiple compounds in a single assay. […] The two compounds, MRM-6 and MRM-4, derivatives of PMH whose structures are shown below, were obtained from Dr. K. A. El Sayed.

[2] = test system: LNCaP, PC-3M and DU-145 cell lines; assay: Transepithelial electric resistance (TER); details: 50 nM CT
Procedure: (§1) Cells were plated on Transwell filters (0.4 μm pore size) and grown to confluency in complete medium (RPMI1640 containing 10% fetal bovine serum, 20 mM HEPES and antibiotics). TER of the cultures (in duplicate wells) was measured at several time intervals with EVOM volt-ohm meter as previously described (Shah et al, 2009). The readings were corrected for blank (TER values from the filter in bathing medium). The integrity and cell density of monolayers were carefully monitored.
Whether CT produces similar effects in LNCaP, PC-3M and DU-145 cell lines, which endogenously express CTR, was examined as shown in FIG. 1A. FIGS. 9A-9B depict the effect of CT on tight junction (TJ) disruption as measured using TER and PCP in the three prostate cancer cell lines—LNCaP, PC-3M, and DU-145. […] In FIG. 9B, cells were treated with and without 50 nM CT, and PCP determined by diffusion of ˜4 kDa TRITC-conjugated dextran from the upper to the lower chamber in one hour. The results are expressed as μg/ml/hour of TRITC-Dextran diffused ±SEM (n=6; *p<0.05 (−CT v +CT, One way ANOVA and Newman-Keul's test)). […] Cells were added to upper insert of invasion chambers with or without 50 nM CT, and cells that passed through the Matrigel™ barrier were counted after 48 h. The results are expressed as mean number of invaded cells per 400× field ±SEM (n=6; *p<0.05).

PC-3CTRwt cells [3] = assay: Paracellular permeability (PCP), TRITC-dextran diffusion
Procedure: (§2) For PCP measurements, cells were grown to confluence on Transwell filters. Tetra methyl rhodamine-dextran (1 mg/ml, ˜4 kDa, Sigma) was added to the upper chamber. Fluorescence of the lower chamber medium was measured in Modulus Microplate Reader (Turner Biosystems) at various time intervals.
TJs form a barrier that regulates the movement of ions, solutes and growth factors between cells. To detect whether CT affects the barrier, the diffusion of fluorophore-conjugated dextran was measured across polarized PC cell line monolayers, a procedure called paracellular permeability (PCP). FIG. 2B depicts CTR-C PDZ-binding motif mutation and tight junction (TJ) disruption as measured using PCP. Polarized PC-3V, PC-3-CTRwt and PC-3CTRΔESS cells were treated with or without 50 nM CT, and PCP determined by diffusion of ˜4 kDa TRITC-conjugated dextran from the upper to the lower chamber in one hour. The results are expressed as μg/ml/hour of TRITC-Dextran diffused ±SEM (n=6; *p<0.05 (−CT v +CT, One way ANOVA and Newman-Keul's test)). […]
The effect of CT on TJ functionality was tested by monitoring TER of PC-3CTRwt monolayers. […] TER was measured with EVOM volt-ohm meter. The results are expressed as TER ±SEM (Ωcm^2±SEM; n=6). […] PCP was determined by diffusion of ˜4 kDa TRITC-conjugated dextran from the upper to the lower chamber in one hour. […]

PC-3CTRwt cells [4] = assay: Cell adhesion on culture dishes; details: 50 nM CT, 1 hour
Procedure: Confluent cultures of PC-31-CTR cells were tested for cell adhesion after treatment with diluent (C), CT (50 nM), mPKI (myristoylated PKA inhibitory peptide (100 nM) or mPKI+CT. The number of adherent cells was determined by absorbance after 1 hour and are shown in the right graph.
To understand the significance of CT-induced, PKA-dependent disassembly of TJs in PC cell adhesion and invasion, the action of CT was examined on TER, PCP, cell adhesion and invasion in PC-3CTRwt cells in the presence/absence of mPKI. […] Similarly, mPKI abrogated the actions of CT on PCP and invasion (FIGS. 20B and 20C respectively). Next, the adhesion of PC-3CTRwt cells was examined on culture dishes.

[5] = test system: LNCaP, PC-3M and DU-145 cell lines; assay: Paracellular permeability (PCP), TRITC-dextran diffusion; details: 50 nM CT
Procedure: as §2
Whether CT produces similar effects in LNCaP, PC-3M and DU-145 cell lines, which endogenously express CTR, was examined as shown in FIG. 1A. FIGS. 9A-9B depict the effect of CT on tight junction (TJ) disruption as measured using TER and PCP in the three prostate cancer cell lines—LNCaP, PC-3M, and DU-145. Cells were serum-starved for 4 hours, then treated with and without 50 nM CT, before measuring TER as described above. In FIG. 9B, cells were treated with and without 50 nM CT, and PCP determined by diffusion of ˜4 kDa TRITC-conjugated dextran from the upper to the lower chamber in one hour. The results are expressed as μg/ml/hour of TRITC-Dextran diffused ±SEM (n=6; *p<0.05 (−CT v +CT, One way ANOVA and Newman-Keul's test)). FIG. 9C depicts effects of CT on cell invasion in the same three cell lines—PC-3M, LNCaP, and DU145. Cells were added to upper insert of invasion chambers with or without 50 nM CT, and cells that passed through the Matrigel™ barrier were counted after 48 h. The results are expressed as mean number of invaded cells per 400× field ±SEM (n=6; *p<0.05).

PC-3CTRΔESS cells = assay: Transepithelial electric resistance (TER)
Procedure: as §1
(§3) To examine the effect of calcitonin (CT) on tight junctions (TJs), the transepithelial electric resistance (TER) of polarized PC-3 cells expressing either the vector (PC-3V), CTRwt or CTRΔESS was monitored for 8 hours after CT stimulation (FIG. 2A). Polarized PC-3V, PC-3 CTRwt and PC-3 CTR-ΔESS cells were serum-starved for 4 hours, then treated with or without 50 nM CT. TER was measured with EVOM volt-ohm meter, and results expressed as Ωcm^2±SEM (n=6). […] Since PC-3 cells secrete CT, the expression of CTRwt may have activated CT-CTR axis causing almost 40% reduction of TER in PC-3CTRwt cells.

PC-3V cells = assay: Transepithelial electric resistance (TER); details: 50 nM CT
Procedure: as §1, §3

Substance: calcitonin [CT]
- increase in luciferase activity (RLU) [1]: over 50 fold
- TER [2]: reduced TER
- PCP (PC-3CTRwt cells [3]; 50 nM CT): increased PCP significantly; also recorded: eighty percent
- PCP at multiple CT doses (PC-3CTRwt cells [3]; CT doses of 10 nM or higher): induced an increase
- adhesion of the cells to plastic matrix (PC-3CTRwt cells [4]): remarkable decline
- PCP [5]: increased PCP
- TER (PC-3CTRΔESS cells; 50 nM CT): did not affect TER
- TER at multiple CT concentrations (PC-3CTRΔESS cells; all CT concentrations): did not show any changes
- TER (PC-3V cells): did not alter it
